Measurements published in patent US11331271B2, “Buccal, sublingual and intranasal delivery of fospropofol” (The Johns Hopkins University, priority 2016, dated 2022).
Entries after “also recorded” stand apart in the source; their conditions may differ.

System: healthy male volunteers
Test: Human Study 1: treatment-emergent adverse events (TEAE), safety, Modified OAA/S
Type: in vivo
Experimental: In human study 1, fospropofol disodium was formulated as a sterile aqueous solution at a concentration of 20 mg/mL. Each vial provided contained 20 mL of solution, suitable for intravenous injection. Fospropofol was administered as a single dose of 400 mg orally, directly into the duodenum by gastroscopy or intravenously over 10 min. In human study 2, fospropofol disodium in capsules (200 mg) or matching placebo was administered orally.
The first study was an absolute bioavailability study of fospropofol conducted at a single center (PRA Health Sciences) in Groningen, Netherlands, as a three-way crossover study. The study enrolled 7 healthy male volunteers between 18 and 45 years of age inclusive, with a body mass index between 18 and 28 kg/m^2. Subjects stayed in the clinical unit for three consecutive periods of 3 days each, with a 3-day washout, between periods. For six subjects, the order of the administration routes was as follows—period 1: PO, period 2: ID, and period 3: IV. For one subject the order of the administration routes was the following—period 1: ID, period 2: IV and period 3: PO. In this study a single dose of 400 mg was administered by each route. Blinding and placebo control was impractical due to the requirement of unsedated endoscopic administration of fospropofol into the duodenum. Safety and overall pharmacodynamic effect was evaluated based on adverse events, vital signs, electrocardiogram (ECG), Modified Observer's Assessment of Alertness/Sedation (OAA/S) score, clinical laboratory tests, and physical examination.

CC(C)c1cccc(C(C)C)c1OCOP(=O)(O)O [fospropofol]
TEAE NERVOUS SYSTEM DISORDERS, events (E) (400 mg PO): 6 | TEAE NERVOUS SYSTEM DISORDERS, subjects (%) (400 mg PO): 57% | TEAE PSYCHIATRIC DISORDERS, events (E) (400 mg PO): 1 | TEAE PSYCHIATRIC DISORDERS, subjects (%) (400 mg PO): 14% | TEAE TOTAL, events (E) (400 mg PO): 8 | TEAE TOTAL, subjects (%) (400 mg PO): 86% | TEAE dizziness, events (E) (400 mg PO): 1 | TEAE dizziness, subjects (%) (400 mg PO): 14% | TEAE euphoric mood, events (E) (400 mg PO): 1 | TEAE euphoric mood, subjects (%) (400 mg PO): 14% | TEAE nausea, events (E) (400 mg PO): 1 | TEAE nausea, subjects (%) (400 mg PO): 14% | TEAE paresthesia, events (E) (400 mg PO): 1 | TEAE paresthesia, subjects (%) (400 mg PO): 14% | TEAE somnolence, events (E) (400 mg PO): 4 | TEAE somnolence, subjects (%) (400 mg PO): 57% | time to resolution of euphoria (400 mg PO, one subject): 17 min | Modified OAA/S score, all subjects at all times (400 mg oral): 5 | TEAE BLOOD AND LYMPHATIC SYSTEM DISORDERS, events (E) (400 mg, Total (PO+ID+IV)): 1 | TEAE BLOOD AND LYMPHATIC SYSTEM DISORDERS, subjects (%) (400 mg, Total (PO+ID+IV)): 14% | TEAE EYE DISORDERS, events (E) (400 mg, Total (PO+ID+IV)): 5 | TEAE EYE DISORDERS, subjects (%) (400 mg, Total (PO+ID+IV)): 71% | TEAE GASTROINTESTINAL DISORDERS, events (E) (400 mg, Total (PO+ID+IV)): 6 | TEAE GASTROINTESTINAL DISORDERS, subjects (%) (400 mg, Total (PO+ID+IV)): 57% | TEAE GENERAL DISORDERS AND ADMINISTRATION SITE CONDITIONS, events (E) (400 mg, Total (PO+ID+IV)): 12 | TEAE GENERAL DISORDERS AND ADMINISTRATION SITE CONDITIONS, subjects (%) (400 mg, Total (PO+ID+IV)): 71% | TEAE INFECTIONS AND INFESTATIONS, events (E) (400 mg, Total (PO+ID+IV)): 1 | TEAE INFECTIONS AND INFESTATIONS, subjects (%) (400 mg, Total (PO+ID+IV)): 14% | TEAE MUSCULOSKELETAL AND CONNECTIVE TISSUE DISORDERS, events (E) (400 mg, Total (PO+ID+IV)): 2 | TEAE MUSCULOSKELETAL AND CONNECTIVE TISSUE DISORDERS, subjects (%) (400 mg, Total (PO+ID+IV)): 29% | TEAE NERVOUS SYSTEM DISORDERS, events (E) (400 mg, Total (PO+ID+IV)): 40 | TEAE NERVOUS SYSTEM DISORDERS, subjects (%) (400 mg, Total (PO+ID+IV)): 100% | TEAE PSYCHIATRIC DISORDERS, events (E) (400 mg, Total (PO+ID+IV)): 3 | TEAE PSYCHIATRIC DISORDERS, subjects (%) (400 mg, Total (PO+ID+IV)): 43% | TEAE REPRODUCTVE SYSTEM AND BREAST DISORDERS, events (E) (400 mg, Total (PO+ID+IV)): 1 | TEAE REPRODUCTVE SYSTEM AND BREAST DISORDERS, subjects (%) (400 mg, Total (PO+ID+IV)): 14% | TEAE SKIN AND SUBCUTANEOUS TISSUE DISORDERS, events (E) (400 mg, Total (PO+ID+IV)): 2 | TEAE SKIN AND SUBCUTANEOUS TISSUE DISORDERS, subjects (%) (400 mg, Total (PO+ID+IV)): 29% | TEAE TOTAL, subjects (%) (400 mg, Total (PO+ID+IV)): 100% | TEAE burning sensation, events (E) (400 mg, Total (PO+ID+IV)): 6 | TEAE burning sensation, subjects (%) (400 mg, Total (PO+ID+IV)): 43% | TEAE catheter site pain, events (E) (400 mg, Total (PO+ID+IV)): 1 | TEAE catheter site pain, subjects (%) (400 mg, Total (PO+ID+IV)): 14% | TEAE diplopia, events (E) (400 mg, Total (PO+ID+IV)): 1 | TEAE diplopia, subjects (%) (400 mg, Total (PO+ID+IV)): 14% | TEAE disorientation, events (E) (400 mg, Total (PO+ID+IV)): 1 | TEAE disorientation, subjects (%) (400 mg, Total (PO+ID+IV)): 14% | TEAE dizziness postural, events (E) (400 mg, Total (PO+ID+IV)): 1 | TEAE dizziness postural, subjects (%) (400 mg, Total (PO+ID+IV)): 14% | TEAE dizziness, events (E) (400 mg, Total (PO+ID+IV)): 5 | TEAE dizziness, subjects (%) (400 mg, Total (PO+ID+IV)): 43% | TEAE dry mouth, events (E) (400 mg, Total (PO+ID+IV)): 1 | TEAE dry mouth, subjects (%) (400 mg, Total (PO+ID+IV)): 14% | TEAE dyspepsia, events (E) (400 mg, Total (PO+ID+IV)): 1 | TEAE dyspepsia, subjects (%) (400 mg, Total (PO+ID+IV)): 14% | TEAE ecchymosis, events (E) (400 mg, Total (PO+ID+IV)): 1 | TEAE ecchymosis, subjects (%) (400 mg, Total (PO+ID+IV)): 14% | TEAE euphoric mood, events (E) (400 mg, Total (PO+ID+IV)): 2 | TEAE euphoric mood, subjects (%) (400 mg, Total (PO+ID+IV)): 29% | TEAE fatigue, events (E) (400 mg, Total (PO+ID+IV)): 4 | TEAE fatigue, subjects (%) (400 mg, Total (PO+ID+IV)): 43% | TEAE feeling abnormal, events (E) (400 mg, Total (PO+ID+IV)): 1 | TEAE feeling abnormal, subjects (%) (400 mg, Total (PO+ID+IV)): 14% | TEAE feeling cold, events (E) (400 mg, Total (PO+ID+IV)): 1 | TEAE feeling cold, subjects (%) (400 mg, Total (PO+ID+IV)): 14% | TEAE feeling drunk, events (E) (400 mg, Total (PO+ID+IV)): 1 | TEAE feeling drunk, subjects (%) (400 mg, Total (PO+ID+IV)): 14% | TEAE flatulence, events (E) (400 mg, Total (PO+ID+IV)): 1 | TEAE flatulence, subjects (%) (400 mg, Total (PO+ID+IV)): 14% | TEAE genital pruritis male, events (E) (400 mg, Total (PO+ID+IV)): 1 | TEAE genital pruritis male, subjects (%) (400 mg, Total (PO+ID+IV)): 14% | TEAE herpes simplex, events (E) (400 mg, Total (PO+ID+IV)): 1 | TEAE herpes simplex, subjects (%) (400 mg, Total (PO+ID+IV)): 14% | TEAE lymph node pain, events (E) (400 mg, Total (PO+ID+IV)): 1 | TEAE lymph node pain, subjects (%) (400 mg, Total (PO+ID+IV)): 14% | TEAE muscle fatigue, events (E) (400 mg, Total (PO+ID+IV)): 2 | TEAE muscle fatigue, subjects (%) (400 mg, Total (PO+ID+IV)): 29% | TEAE nausea, events (E) (400 mg, Total (PO+ID+IV)): 2 | TEAE nausea, subjects (%) (400 mg, Total (PO+ID+IV)): 14% | TEAE paresthesia, events (E) (400 mg, Total (PO+ID+IV)): 10 | TEAE paresthesia, subjects (%) (400 mg, Total (PO+ID+IV)): 86% | TEAE proctalgia, events (E) (400 mg, Total (PO+ID+IV)): 1 | TEAE proctalgia, subjects (%) (400 mg, Total (PO+ID+IV)): 14% | TEAE rash, events (E) (400 mg, Total (PO+ID+IV)): 1 | TEAE rash, subjects (%) (400 mg, Total (PO+ID+IV)): 14% | TEAE sluggishness, events (E) (400 mg, Total (PO+ID+IV)): 3 | TEAE sluggishness, subjects (%) (400 mg, Total (PO+ID+IV)): 43% | TEAE somnolence, events (E) (400 mg, Total (PO+ID+IV)): 11 | TEAE somnolence, subjects (%) (400 mg, Total (PO+ID+IV)): 100% | TEAE speech disorder, events (E) (400 mg, Total (PO+ID+IV)): 6 | TEAE speech disorder, subjects (%) (400 mg, Total (PO+ID+IV)): 86% | TEAE subrapubic pain, events (E) (400 mg, Total (PO+ID+IV)): 1 | TEAE subrapubic pain, subjects (%) (400 mg, Total (PO+ID+IV)): 14% | TEAE tremor, events (E) (400 mg, Total (PO+ID+IV)): 1 | TEAE tremor, subjects (%) (400 mg, Total (PO+ID+IV)): 14% | TEAE visual disturbance, events (E) (400 mg, Total (PO+ID+IV)): 4 | TEAE visual disturbance, subjects (%) (400 mg, Total (PO+ID+IV)): 57% | TEAEs considered possibly or probably related to study drug (400 mg, all routes): Seventy | clinical laboratory results, vital signs, ECG, physical examination (400 mg, all routes): No clinically-relevant abnormalities | lowest observed Modified OAA/S score (400 mg, all routes): 4 | serious adverse events (400 mg, all routes): No subject experienced a serious adverse event; also recorded: No severe or serious TEAEs | severity of TEAEs (400 mg, all routes): mild | time to resolution of TEAEs (all but one) (400 mg, all routes, after dosing): ≤ 1 h | time by which all subjects had Modified OAA/S scores of 5 (400 mg, all routes, postdose): ≤ 1.5 h
